The text below walks through data of patent US12043617B2, “4-(N-methyl) aminopiperidine myricetin derivative containing dithiocarbamate, preparation method and application” (Guizhou University, priority 2019, dated 2024).

The experiment relates to SMMC-7721 cells. Description: MTT colorimetry, inhibition of hepatocellular carcinoma SMMC-7721 cell activity. It counts as cell-based. To be noted: 48 hours. The method, then:
Test for Inhibition of Cancer Cell Activity by Compound of Embodiment 19 (Taking Hepatocellular Carcinoma SMMC-7721 Cells as an embodiment):
SMMC-7721 cells are cultured in DMEM high sugar medium containing 10% fetal bovine serum in a saturated humidity incubator at 37° C. and 5% CO2. The culture medium is changed every two days and passaged every 3-4 days. The drug is prepared as 1 mmol/L and 10 mmol/L storage solution using DMSO as solvent, when used, the concentration is diluted into 1 μmol/L and 10 μmol/L with culture medium, using DMSO as negative control group and gemcitabine as positive control group to act on cells in logarithmic growth phase.
Cells in logarithmic growth phase are digested with 0.025% pancreatin, and then digested with DMEM high sugar medium containing 10% fetal bovine serum. After centrifugation, the cells are suspended in DMEM high sugar medium containing 10% fetal bovine serum. Take a 96-well plate and add 200 μL of sterile water seal to each hole around the plate to ensure saturated humidity in the experiment. In the middle six rows, 100 μL of cell suspension are added respectively, and the cell concentration is about 3.5×10^4 cells/mL. The last row is blank control group, and the same volume of complete culture medium is added. In 37° C., 5% CO2 saturated humidity incubator culture for 24 hours, cells completely adhere to the wall, remove the culture medium, add complete culture medium containing different drugs, 200 μL per hole. The blank control group is added with 200 μL of complete culture medium, and the culture is continued. After 24 hours, the drug effect is observed and photographed under an inverted microscope. After 48 hours, the drug effect is also observed and photographed under an inverted microscope. Then the supernatant is removed. 100 μL of 0.5 mg/mL MTT solution is added to each well. After 4 hours of continuous culture, purple crystal formazan is generated. 100 μL of 10% SDS is added to each well. After 12 hours of culture in an incubator at 37° C., the OD value is measured with an enzyme reader at A571 wavelength. Repeat 6 wells for each sample concentration, and calculate the inhibition rate by taking the average value.

On to `COc1cc(OC)c2c(=O)c(OCCCN(C)C3CCN(C(=S)SCc4ccc(Cl)cc4Cl)CC3)c(-c3cc(OC)c(OC)c(OC)c3)oc2c1` [Compound A3, 2,4-dichlorobenzyl 4-((3-((5,7-dimethoxy-4-oxo-2-(3,4,5-trimethoxyphenyl)-4H-chromene-3-yl)oxy)propyl) (methyl)amino) piperidine-1-dithiocarboxylic acid], for which the “Inhibition Rate (%)” value runs as follows: (1 μmol/L) 18.16 ± 2.14 %; (10 μmol/L) 97.35 ± 1.78 %.
As for `COc1cc(OC)c2c(=O)c(OCCCCN(C)C3CCN(C(=S)SCc4ccccc4C)CC3)c(-c3cc(OC)c(OC)c(OC)c3)oc2c1` [Compound A15, 2-methylbenzyl-4-((4-((5,7-dimethoxy-4-oxo-2-(3,4,5-trimethoxyphenyl)-4H-benzopyran-3-yl)oxy)butyl) (methyl)amino) piperidine-1-dithiocarboxylic acid], the “Inhibition Rate (%)” value was 16.38 ± 3.82 % (1 μmol/L) and 99.52 ± 1.12 % (10 μmol/L).
On the same counts, the results for `COc1cc(OC)c2c(=O)c(OCCCCN(C)C3CCN(C(=S)SCc4ccc(Cl)cc4)CC3)c(-c3cc(OC)c(OC)c(OC)c3)oc2c1` [Compound A10, 4-chlorobenzyl-4-((4-((5,7-dimethoxy-4-oxo-2-(3,4,5-trimethoxyphenyl)-4H-benzopyran-3-yl)oxy)butyl) (methyl)amino) piperidine-1-dithiocarboxylic acid] are 92.83 ± 3.84 % and 97.85 ± 3.35 %.
For `COc1cc(OC)c2c(=O)c(OCCCN(C)C3CCN(C(=S)SCc4ccccc4Cl)CC3)c(-c3cc(OC)c(OC)c(OC)c3)oc2c1` [Compound A2, 2-chlorobenzyl-4-((3-((5,7-dimethoxy-4-oxo-2-(3,4,5-trimethoxyphenyl)-4H-chromene-3-yl)oxy)propyl)(methyl)amino)piperidine-1-dithiocarboxylic acid], in that order: 25.44 ± 3.25 % and 96.13 ± 3.42 %.
`COc1cc(OC)c2c(=O)c(OCCCCN(C)C3CCN(C(=S)SCc4ccccc4Cl)CC3)c(-c3cc(OC)c(OC)c(OC)c3)oc2c1` [Compound A11, 2-chlorobenzyl-4-((4-((5,7-dimethoxy-4-oxo-2-(3,4,5-trimethoxyphenyl)-4H-benzopyran-3-yl)oxy)butyl) (methyl)amino) piperidine-1-dithiocarboxylic acid]: the “Inhibition Rate (%)” value by setting is: (1 μmol/L) 91.00 ± 2.86 %; (10 μmol/L) 99.85 ± 1.64 %.
On the same counts, the results for `COc1cc(OC)c2c(=O)c(OCCCN(C)C3CCN(C(=S)SCc4ccc(Cl)cc4)CC3)c(-c3cc(OC)c(OC)c(OC)c3)oc2c1` [Compound A1, 4-chlorobenzyl 4-((3-((5,7-dimethoxy-4-oxo-2-(3,4,5-trimethoxyphenyl)-4H-chromene-3-yl)oxy)propyl)(methyl)amino)piperidine-1-dithiocarboxylic acid] are 21.82 ± 2.34 % and 95.51 ± 4.16 %.
For `COc1cc(OC)c2c(=O)c(OCCCCN(C)C3CCN(C(=S)SCc4ccccc4F)CC3)c(-c3cc(OC)c(OC)c(OC)c3)oc2c1` [Compound A13, 2-fluorobenzyl-4-((4-((5,7-dimethoxy-4-oxo-2-(3,4,5-trimethoxyphenyl)-4H-benzopyran-3-yl)oxy)butyl) (methyl)amino) piperidine-1-dithiocarboxylic acid], in that order: 46.96 ± 4.65 % and 99.76 ± 1.06 %.
Turning to `COc1cc(OC)c2c(=O)c(OCCCCN(C)C3CCN(C(=S)SCc4ccc([N+](=O)[O-])cc4)CC3)c(-c3cc(OC)c(OC)c(OC)c3)oc2c1` [Compound A16, 4-nitrobenzyl-4-((4-((5,7-dimethoxy-4-oxo-2-(3,4,5-trimethoxyphenyl)-4H-benzopyran-3-yl)oxy)butyl) (methyl)amino) piperidine-1-dithiocarboxylic acid], the “Inhibition Rate (%)” value amounted to 26.84 ± 4.36 % (1 μmol/L) and 99.85 ± 0.71 % (10 μmol/L).
On to `COc1cc(OC)c2c(=O)c(OCCCN(C)C3CCN(C(=S)SCc4ccc(Cl)nc4)CC3)c(-c3cc(OC)c(OC)c(OC)c3)oc2c1` [Compound A9, (6-chloropyridine-3-yl) methyl 4-((3-((5,7-dimethoxy-4-oxo-2-(3,4,5-trimethoxyphenyl)-4H-benzopyran-3-yl)oxygen)propyl) (methyl)amino) piperidine-1-dithiocarboxylic acid], for which the “Inhibition Rate (%)” value amounted to 18.83 ± 3.15 % (1 μmol/L) and 99.76 ± 1.06 % (10 μmol/L).
For `COc1cc(OC)c2c(=O)c(OCCCN(C)C3CCN(C(=S)SCc4ccccc4C)CC3)c(-c3cc(OC)c(OC)c(OC)c3)oc2c1` [Compound A6, 2-methylbenzyl 4-((3-((5,7-dimethoxy-4-oxo-2-(3,4,5-trimethoxyphenyl)-4H-chromene-3-yl)oxy)propyl) (methyl)amino) piperidine-1-dithiocarboxylic acid], in that order: 34.32 ± 2.69 % and 98.12 ± 2.76 %.
On to `COc1cc(OC)c2c(=O)c(OCCCN(C)C3CCN(C(=S)SCc4ccc([N+](=O)[O-])cc4)CC3)c(-c3cc(OC)c(OC)c(OC)c3)oc2c1` [Compound A7, 4-nitrobenzyl 4-((3-((5,7-dimethoxy-4-oxo-2-(3,4,5-trimethoxyphenyl)-4H-chromene-3-yl)oxy)propyl) (methyl)amino) piperidine-1-dithiocarboxylic acid], for which the “Inhibition Rate (%)” value is recorded as 27.70 ± 1.09 % (1 μmol/L) and 99.35 ± 3.48 % (10 μmol/L).
